Results taken from patent US9717665B2, “Tooth desensitizing oral care compositions, devices, and methods” (The Procter & Gamble Company, priority 2013, dated 2017).

Test system: human 3rd molar coronal dentin
Assay: Dentinal flow rate measurement (Pashley-like flow cell)
Conditions: repeated deposition
Protocol: Volumetric flow rates through cross-sections of human 3rd molar coronal dentin are measured before and after treatment using a flow cell apparatus (FIG. 6). Twenty two coronal dentin sections of human molars are obtained by cross sectional cutting with a diamond blade saw to a thickness between 0.80 and 1.00 mm. The sections resemble disks due to the circular nature of molars. The center of the disk is dentin 90 with a thin ring of enamel around the circumference (FIG. 6). The cut dentin disks are then placed in 6.0% citric acid for two minutes followed by sonication in water and subsequent rinsing to remove the smear layer created by the cutting process. The removal of the smear layer with citric acid is an effective and well known technique to produce open dentinal tubules representative of sensitive dentin found in-vivo. […]
Each dentin disk section is centered over the opening with flat washers 110 and bushing 120 on each side, making sure that the section spanned the opening with at least 1 mm overlap around the entire perimeter. […] The liquid velocity is recorded by timing the movement of the bubble within the supply line. […] Using a digital stop watch, elapsed times are recorded over 4 equidistant points along the ruler to establish the average rate the bubble travels and to ensure the velocity is constant. […]

O=C(O)C(=O)O [oxalate]
Flow rates through dentin: significantly reduce flow rates through dentin
